Data published in paper PMC7177456, “A Peptidomimetic Fluorescent Probe to Detect the Trypsin β2 Subunit of the Human 20S Proteasome” (International Journal of Molecular Sciences, 2020).

What was measured:
[1] = system: 20S proteasome, 26S proteasome and immunoproteasome 20S; assay: Cleavage of substrate 1 by 20S, 26S and 20S immunoproteasome; type: biochemical, human; conditions: 20S vs 26S vs 20S immunoproteasome, equimolar concentrations; initial screening
Procedure: For enzymatic studies, the human 20S proteasome, 26S proteasome, and 20S immunoproteasome were purchased from Boston Biochem (Cambridge, MA, USA). The 20S proteasome concentration for library deconvolution was in the nanomolar range, and this proteasome entity was used for the main study. Deconvolution of the peptide libraries was performed using the iterative solution method. Dimethyl sulfoxide (DMSO) was used as a solvent for preparation of the stock solution (5 mg/mL) for each lyophilized sub-library. This stock solution was diluted ten times using an assay buffer (50 mM Tris/HCl buffer (pH 8.2)) for the 20S and 20Si proteasome, and for 26S, the buffer was supplemented with 40 mM KCl, 2 mM EDTA, 1 mM DTT, 100 µM ATP, and 50 µg/mL bovine serum albumin (BSA). The volume composition of each well of the 96-well plate was: 20 µL library, 160 µL assay buffer, and 20 µL 20S proteasome solution at a concentration of 1.07 × 10^−9 M. Absorbance or fluorescence measurements were performed on a FluoroStar OMEGA multimode microplate reader (BMG, Ortenberg, Germany). Absorbance increases were monitored at 410 nm. The excitation and emission wavelengths were 320 and 450 nm respectively, for the ABZ/ANB. Enzymatic hydrolysis of the peptide was performed in the assay buffer at 37 °C and continued over 60 min.

[2] = system: 20S proteasome in human urine; assay: Proteasome activity in human urine with substrate 1; type: biochemical; conditions: for proteasome activity (cleavage of substrate 1): 80 µL urine, substrate 1.34 × 10^−5 M, 320/450 nm, Mann–Whitney p < 0.0001
Procedure: All urine samples were purchased from St. Vincent de Paul Hospital in Gdynia, Poland (contract no. JN/777/R720/08.11.17). All methods and procedures were performed in accordance with this contract agreement. Participants were informed about the study and sample collection, and their written consent was collected. […] Therefore, the samples were considered unnamed. The samples of human urine were taken during mid-urination and kept for 48 h at −80 °C until required. All samples used for assay development were taken from healthy volunteers (n = 5), and oncological samples were obtained from patients diagnosed with bladder cancer (n = 8).
The urine samples were thawed at room temperature, gently vortexed, and briefly centrifuged (<20 s) to collect the sample at the bottom of the tube. A total of 80 μL urine was transferred to a 96-well microplate and mixed with assay buffer and substrate 1. Proteasome activity was assayed as described earlier. Briefly, 80 µL of urine from healthy volunteers, urine from patients diagnosed with bladder cancer, and bladder cancer urine supplemented by the inhibitor PR671A were mixed with 200 µL of the assayed buffer and 20 µL of the substrate at a concentration of 1.34 × 10^−5 M, and the fluorescence was quantified. An excitation wavelength equal to 320 nm and an emission wavelength of 450 nm were used.
The resulting data were analyzed using Graphpad Prism version 6.0 software (GraphPad Software Inc., La Jolla, CA, USA). All fluorescent measurements were performed in triplicate and represented by the mean ± standard deviation (SD). A two-tailed Mann–Whitney test was applied for the statistical analysis (p < 0.0001).

## ABZ–Dap(O2(Cbz))–Dap(GO1)–Dap(O2(Cbz))–Arg–ANB–NH2 [substrate 1]
[1]
  selectivity among proteasome entities: selectively proteolyzed by the 20S proteasome
[2]; bladder cancer urine samples, n = 8
  fluorescence (in words): fluorescence increase that was observed in all samples
[2]; bladder cancer urine, n = 8, mean ± SD
  proteasome activity (cleavage of substrate 1): 48.4 ± 28.1
[2]; healthy urine samples, n = 5
  fluorescence (in words): insignificant background levels of fluorescence
[2]; healthy urine, n = 5, mean ± SD
  proteasome activity (cleavage of substrate 1): 0.1 ± 0.04
